{"source": "patent US20110039906A1", "about": "“ANTIBACTERIAL COMBINATION THERAPY” (priority 2007, published 2011)", "key": {"MRSA": {"system": "MRSA", "conditions": "literature evidence (Taylor et al., 1987); cited from earlier work"}, "USA/VISA 5836 (VISA)": {"system": "USA/VISA 5836 (VISA)", "assay": "MIC by broth microdilution (experiment B)", "format": "cell-based", "conditions": "Staphylococcus aureus, combination 1:1, value = mg/L total drug", "protocol": "(§1) Minimum inhibitory concentrations (MICs) of a range of clinical and control bacterial organisms were measured according to BSAC (British Society for Antimicrobial Chemotherapy) guidelines (Andrews 2001), for single agents and combinations of agents, described briefly as follows. MICs were measured by agar dilution (Experiment A) and by broth microdilution (experiment B).\n(§2) Stock solutions were prepared at concentrations of 1000 mg/L and 100 mg/L. The appropriate amounts of each stock solution were added to separate Petri dishes give a range of final concentrations (after the addition of 20 mL molten agar): from 0.12 to 32 mg/L. In experiment A, a 1:1 ratio of each agent was added to the appropriate Petri dish so that a 2 mg/L plate contained 2 mg/L of each agent. Volumes (20 mL) of cooled molten IST agar (oxoid) was added to each Petri dish and mixed by swirling. After drying, the plates were stored at 4° C. and protected from light. Plates were used on the day of preparation.\n(§3) The test organisms were grown overnight in 5 mL IST broth. […] For the broth microdilution, each well of a microtitre plate was inoculated with diluted overnight culture to give a final inoculum of 5×10^5 cfu/mL. […]\n(§4) The MIC is the minimum amount of an antibiotic at which there is no visible growth of bacteria. Tiny single colonies or faint hazes were not counted as growth."}, "[1]": {"system": "25 different MRSA isolates and 5 VRE isolates", "assay": "Pooled MIC testing (MIC50, MIC90, range)", "format": "cell-based", "conditions": "25 MRSA isolates and 5 VRE isolates", "from_the_text": "The MIC50 is the minimum inhibitory concentration required to inhibit the growth of 50% of the strains tested, and the MIC90, the concentration required to inhibit the growth of 90% of the strains tested."}, "S. epidermidis 1228": {"system": "S. epidermidis 1228", "assay": "MIC by broth microdilution (experiment B)", "format": "cell-based", "conditions": "Staphylococcus epidermidis, combination 1:1, value = mg/L total drug", "protocol": "as §1, §2, §3, §4"}, "VISA 3900 UK (VISA)": {"system": "VISA 3900 UK (VISA)", "assay": "MIC by broth microdilution (experiment B)", "format": "cell-based", "conditions": "Staphylococcus aureus, combination 1:1, value = mg/L total drug", "protocol": "as §1, §2, §3, §4"}, "Mu50exJapan (VISA)": {"system": "Mu50exJapan (VISA)", "assay": "MIC by broth microdilution (experiment B)", "format": "cell-based", "conditions": "Staphylococcus aureus, combination 1:1, value = mg/L total drug", "protocol": "as §1, §2, §3, §4"}, "USA/VISA) 5827 (VISA": {"system": "USA/VISA) 5827 (VISA", "assay": "MIC by broth microdilution (experiment B)", "format": "cell-based", "conditions": "Staphylococcus aureus, combination 1:1, value = mg/L total drug", "protocol": "as §1, §2, §3, §4"}}, "note": "Where two headings read alike, the source gives them in different places."}
{"compound": "CCN(CC)C(=S)S", "note": "[DDTC, diethyldithiocarbamate]", "values": [{"measurement": "antibacterial activity against MRSA", "setting": "MRSA", "result": "some antibacterial activity"}]}
{"compound": "Clc1ccc(COC(Cn2ccnc2)c2ccc(Cl)cc2Cl)c(Cl)c1", "note": "(stereo not drawn) [Miconazole, 1-[2-(2,4-Dichlorophenyl)-2-[(2,4-dichlorophenyl)methoxy]ethyl]-1H-imidazole]", "values": [{"measurement": "MIC", "setting": "USA/VISA 5836 (VISA)", "result": 8, "unit": "mg/L"}, {"measurement": "Range of MICs", "setting": "[1]", "result": "0.5 to 8", "unit": "mg/L"}, {"measurement": "MIC50", "setting": "[1]; concentration inhibiting growth of 50% of strains", "result": 2, "unit": "mg/L"}, {"measurement": "MIC90", "setting": "[1]; concentration inhibiting growth of 90% of strains", "result": 2, "unit": "mg/L"}, {"measurement": "MIC", "setting": "[1]; read-out: highest MIC", "result": 8, "unit": "mg/L"}, {"measurement": "MIC", "setting": "[1]; read-out: lowest MIC", "result": 0.5, "unit": "mg/L"}, {"measurement": "MIC", "setting": "S. epidermidis 1228", "result": 2, "unit": "mg/L"}, {"measurement": "MIC", "setting": "VISA 3900 UK (VISA)", "result": 2, "unit": "mg/L"}]}
{"compound": "CCN(CC)C(=S)SSC(=S)N(CC)CC", "note": "[Disulfiram (ethanol), disulfiram]", "values": [{"measurement": "antibacterial activity against MRSA", "setting": "MRSA", "result": "some antibacterial activity"}]}
{"compound": "Clc1ccc(COC(Cn2ccnc2)c2ccc(Cl)cc2Cl)cc1", "note": "(stereo not drawn) [Econazole, 1-[2-[(4-Chlorphenyl)methoxy]-2-(2,4-dichlorophenyl)ethyl]-1H-imidazole]", "values": [{"measurement": "MIC", "setting": "USA/VISA 5836 (VISA)", "result": 8, "unit": "mg/L"}, {"measurement": "MIC", "setting": "S. epidermidis 1228", "result": 2, "unit": "mg/L"}, {"measurement": "MIC", "setting": "Mu50exJapan (VISA)", "result": 8, "unit": "mg/L"}, {"measurement": "MIC", "setting": "VISA 3900 UK (VISA)", "result": 8, "unit": "mg/L"}, {"measurement": "MIC", "setting": "USA/VISA) 5827 (VISA", "result": 4, "unit": "mg/L"}]}
